According to US20230279011A1, “WATER-SOLUBLE TRYPTHANTRIN DERIVATIVES FOR REDOX FLOW BATTERIES” (UNIVERSIDADE DE COIMBRA, priority 2020, published 2023):
Where two headings read alike, the source gives them in different places.

How the values were obtained:
[1] = Solubility in supporting electrolyte / water; assay type: physicochemical; details: 1.0 M KCl solution, saline or isotonic; in 1.0 M KCl
[2] = acidic medium, reported studies; cited from earlier work
[3] = Cyclic voltammetry scan rate study: diffusion coefficient (Randles-Sevcik) and electron transfer rate constant (Nicholson); assay type: physicochemical
Experimental: To further verify the correlation between the reaction rate of the catholyte/anolyte pair with the performance and stability of the RFBs, the kinetic parameters, diffusion coefficient (D), and electron transfer rate constant (k0), were quantified.
Electrochemical kinetics studies were conducted by CV measurements and Nicholson analysis. […] The Randles-Sevcik equation, described in Elgrishi et al, A Practical Beginner's Guide to Cyclic Voltammetry. Journal of Chemical Education 2018, 95 (2), 197-206, was used to calculate the diffusion coefficient (D in cm^2 s^−1). A linear fit (ip=slope x v½) yields the slope of the cathodic and anodic peaks from which the D was obtained.
(§1) The electron transfer rate constant (k0) of K4[Fe(CN)6]/TRYP-SO3 redox couple was estimated by using the Nicholson method using the D values previously obtained, as described in Nicholson, R. S., Theory and Application of Cyclic Voltammetry for Measurement of Electrode Reaction Kinetics. Analytical Chemistry 1965, 37 (11), 1351-1355.
as §1, with “BQDS/TRYP-SO3” for “K4[Fe(CN)6]/TRYP-SO3”, “couple and TRYP-NH2” for “couple”
First, a solution of 1.0 mM of K4[Fe(CN)6] with 1.0 M of KCl in 10 mL of Milli-Q water was used as catholyte. Second, the catholyte was prepared by dissolving 1.0 mM of BQDS into 10 mL of 1.0 M KCl solution. All the solutions were degassed with nitrogen for 10 min prior to analysis. An atmosphere of nitrogen was maintained during the voltammetric experiments, and the samples were run at a scan rate of 10-100 mV s^−1 range. All the CV experiments were carried out at T=293 K.

[4] = in 1.0 M H2SO4; cited from earlier work
[5] = Cyclic voltammetry: oxidation/reduction potentials vs. Ag/AgCl; assay type: physicochemical
Excerpt: Klimovich, A. A., Popov, A. M., Krivoshapko, O. N., Shtoda, Y. P. & Tsybulsky, A. V. A comparative assessment of the effects of alkaloid tryptanthrin, rosmarinic acid, and doxorubicin on the redox status of tumor and immune cells. Biophysics 62, 588-594 (2017) and in Jahng, Y. Progress in the studies on tryptanthrin, an alkaloid of history. Arch. Pharm. Res. 36, 517-535 (2013)), the electrochemical behavior of the compounds was initially performed by measuring cyclic voltammetry (CV) of TRYP at different pH values. Cyclic voltammograms (CVs) are presented in FIG. 3 and the relevant electrochemical data including the oxidation (Epa) and reduction (Epc) potentials are summarized in table 1.
Cyclic voltammetry (CV) experiments were carried out using an Autolab potentiostat/galvanostat PGSTAT204 running with NOVA 2.1 software and a three-electrode system in a one-compartment electrochemical cell of capacity 10 mL. A glassy carbon electrode (GCE) (d=3 mm) was the working electrode, glassy carbon (GC) (d=1.6 mm) wires the counter electrode and Ag/AgCl (3.0 M KCl) the reference electrode. The GCE was polished with appropriate polishing pads using first aluminium oxide with particle size 0.3 μm and then aluminium oxide particle with size 0.075 μm (polish in a […] motion) before each electrochemical experiment. After polishing, the electrode was rinsed thoroughly with Milli-Q water and the electrode was sonicate in a container with Milli-Q water and ethanol (50:50 v/v) for 5 minutes. Following this mechanical treatment, the GCE was placed in buffer supporting electrolyte and differential pulse voltammograms were recorded until a steady state baseline voltammogram was obtained.
Depending on the pH experiments different electrolytes were used, for pH=0 (1.0 M H2SO4) solution, for pH=7 (1.0 M KCl) solution and pH =13 (1.0 M NaOH) solution. Potassium ferricyanide ([…]) (1.0 mM solution) with 1.0 M of the proper electrolyte in 10 mL of Milli-Q water was used as standard and also degassed with nitrogen for 10 minutes prior to analysis. Lastly, to measure the OCV for BQDS, 1.0 mM was dissolved into 1.0 M KCl solution. An atmosphere of nitrogen was maintained during the voltammetric experiments, and the samples were run at a scan rate of 50 mV s^−1.

[6] = 1.0 mM in 1.0 M KCl, Nicholson method, T = 293 K
[7] = neutral pH, 1.0 mM in 1.0 M KCl

| SMILES | solubility [1] [mM] | Electrode potential [2] [V] | Diffusion coefficient (D) ([3]; 1.0 mM in 1.0 M KCl, 10-100 mV s^−1, T = 293 K) [cm/s] | Electron transfer rate constant (k0) [3, 6] [cm/s] | Solubility in sulfuric acid [4] [mM] | Electrode potential in KCl ([5]; in KCl, neutral pH) [V] | Redox potential vs. Ag/AgCl [5, 7] [V] | Diffusion coefficient (D) [3] [cm/s] | Electron transfer rate constant (k0) [3] [cm/s] | Redox potential vs. Ag/AgCl [5] [V] | Oxidation potential Epa^1 (first peak) ([5]; pH 13) | Oxidation potential Epa^2 (second peak) ([5]; pH 13) | Oxidation potential Epa^3 (third peak) ([5]; pH 13) | Reduction potential Epc^1 (first peak) ([5]; pH 13) | Reduction potential Epc^2 (second peak) ([5]; pH 13) | Reduction potential Epc^3 (third peak) ([5]; pH 13) |
| --- | --- | --- | --- | --- | --- | --- | --- | --- | --- | --- | --- | --- | --- | --- | --- | --- |
| O.O=S(=O)([O-])c1cc(O)c(O)c(S(=O)(=O)[O-])c1.[Na+].[Na+] [BQDS, 4,5-dihydroxy-1,3-benzenedisulfonic acid disodium salt monohydrate, reference compound] | 1280 | 0.76 | 5.38e-07 | 0.000271 | 650 | 0.94 | 0.48 | – | – | – | – | – | – | – | – | – |
| Nc1ccc2nc3n(c(=O)c2c1)-c1ccccc1C3=O [TRYP-NH2, 2-aminoindolo[2,1-b]quinazoline-6,12-dione] | – | – | – | 0.264 | – | – | −0.45 | – | – | – | – | – | – | – | – | – |
| O=C1c2cc(S(=O)(=O)O)ccc2-n2c1nc1ccccc1c2=O [TRYP-SO3H, 6,12-dioxo-6,12-dihydroindolo[2,1-b]cquinazoline-8-sulfonic acid] | – | – | – | – | – | – | – | 6.98e-08 | 0.000362 | −0.46 | Epa^1 = 0.225 V | Epa^2 = 0.738 V | Epa^3 = 1.178 V | Epc^1 = −0.325 V | Epc^2 = −0.802 V | Epc^3 = −0.930 V |
